{"source": "patent US20240279237A1", "about": "“FUSED BICYCLIC HETEROARYL COMPOUNDS USEFUL AS NLRP3 INHIBITORS” (Hoffmann-La Roche Inc., priority 2021, published 2024)", "note": "Counter-ions that a name gives are not always drawn."}
{"molecular_target": "T1, NLRP3 (Homo sapiens, UniProt Q96P20)", "T1 construct": "Seed THP-1 cells (25,000 cells/well) containing 1.0 μg/ml LPS in 40 μl of RPMI medium; host or cells: THP-1 cells", "T1 sequence (Q96P20 whole entry)": "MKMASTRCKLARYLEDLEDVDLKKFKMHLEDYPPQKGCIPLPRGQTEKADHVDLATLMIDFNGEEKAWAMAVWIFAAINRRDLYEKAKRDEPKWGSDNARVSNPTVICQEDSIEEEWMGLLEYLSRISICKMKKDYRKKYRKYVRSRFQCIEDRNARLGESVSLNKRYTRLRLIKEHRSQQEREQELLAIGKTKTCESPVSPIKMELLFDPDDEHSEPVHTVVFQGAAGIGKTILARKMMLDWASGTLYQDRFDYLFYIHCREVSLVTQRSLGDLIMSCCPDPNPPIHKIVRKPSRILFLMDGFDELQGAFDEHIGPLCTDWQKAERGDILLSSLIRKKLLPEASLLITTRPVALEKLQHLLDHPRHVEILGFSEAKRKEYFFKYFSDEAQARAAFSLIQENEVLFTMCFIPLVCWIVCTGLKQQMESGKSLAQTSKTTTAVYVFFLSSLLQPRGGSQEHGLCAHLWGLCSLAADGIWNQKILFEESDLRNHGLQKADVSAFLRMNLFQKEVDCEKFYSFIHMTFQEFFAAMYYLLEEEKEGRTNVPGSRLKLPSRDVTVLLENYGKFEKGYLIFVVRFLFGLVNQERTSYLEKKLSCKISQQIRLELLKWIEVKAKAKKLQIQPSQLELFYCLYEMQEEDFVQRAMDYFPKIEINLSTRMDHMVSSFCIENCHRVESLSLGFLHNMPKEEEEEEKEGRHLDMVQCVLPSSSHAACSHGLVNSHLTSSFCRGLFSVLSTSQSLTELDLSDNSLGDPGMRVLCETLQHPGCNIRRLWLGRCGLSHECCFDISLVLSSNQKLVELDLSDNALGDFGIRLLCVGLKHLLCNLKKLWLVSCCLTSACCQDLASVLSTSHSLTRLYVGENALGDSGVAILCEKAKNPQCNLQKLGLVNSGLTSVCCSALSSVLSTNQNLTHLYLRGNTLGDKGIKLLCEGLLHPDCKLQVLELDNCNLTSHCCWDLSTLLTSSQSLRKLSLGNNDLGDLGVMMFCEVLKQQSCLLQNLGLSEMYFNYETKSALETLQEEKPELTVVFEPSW", "test": "THP-1 Cells Pyroptosis Assay", "type": "cell-based", "conditions": "THP-1 cells with 1.0 μg/ml LPS; compound 3 hours; nigericin 5 μM 1 hr; resazurin readout", "experimental": "The cells were routinely passaged and grown to confluency (˜10^6 cells/ml). On the day of the experiment, THP-1 cells were harvested and resuspended into RPMI medium (without FBS). The cells were then counted and viability (>90%) checked by Trypan blue (Sigma #T8154). […] To this diluted cell solution was added LPS (Sigma #L4524) to give a 1 μg/ml Final Assay Concentration (FAC). 40 μl of the final preparation was aliquoted into each well of a 96-well plate. The plate thus prepared was used for compound screening.\nThe following method step-by-step assay was followed for compound screening. • 1. […] Incubate for 3 hours at 37° C., 5% CO2 • 4. Add 5 μl nigericin (Sigma #N7143) (FAC 5 μM) to all wells • 5. Incubate for 1 hr at 37° C., 5% CO2 • 6. At the end of the incubation period, spin plates at 300×g for 3 mins and remove supernatant • 7. Then add 50 μl of resazurin (Sigma #R7017) (FAC 100 μM resazurin in RPMI medium without FBS) and incubate plates for a further 1-2 hours at 37° C. and 5% CO2 • 8.", "units": {"IC50": "nM"}}
{"molecule": "Cc1cc(Cl)cc(O)c1-c1ccc2oc(N[C@@H]3CCCN(C[C@@H]4CC[C@H]4O)C3)nc2n1", "note": "(racemic) [Example 118A, 5-chloro-2-[2-[[(3R)-1-[[rac trans-2-hydroxycyclobutyl]methyl]-3-piperidyl]amino]oxazolo[4,5-b]pyridin-5-yl]-3-methyl-phenol or 5-chloro-2-[2-[[(3R)-1-[[rac cis-2-hydroxycyclobutyl]methyl]-3-piperidyl]amino]oxazolo[4,5-b]pyridin-5-yl]-3-methyl-phenol]", "IC50": 50.8}
{"molecule": "Cc1cc(C(F)(F)F)cc(O)c1-c1ccc2oc(NC3CCCC(O)C3)nc2n1", "note": "(stereo not shown) [Example 13, 2-[2-[(3-Hydroxycyclohexyl)amino]oxazolo[4,5-b]pyridin-5-yl]-3-methyl-5-(trifluoromethyl)phenol]", "IC50": 442}
{"molecule": "Cc1cc(C(F)(F)F)cc(O)c1-c1ccc2oc(NCC34CC(CN3)C4)nc2n1", "note": "[Example 43, 2-[2-(2-Azabicyclo[2.1.1]hexan-1-ylmethylamino)oxazolo[4,5-b]pyridin-5-yl]-3-methyl-5-(trifluoromethyl)phenol;dihydrochloride]", "IC50": 30.5}
{"molecule": "Cc1cc(Cl)cc(O)c1-c1ccc2oc(N[C@@H]3CCCN(C4COC4)C3)nc2n1", "note": "[Example 63, 5-Chloro-3-methyl-2-[2-[[(3R)-1-(oxetan-3-yl)-3-piperidyl]amino]oxazolo[4,5-b]pyridin-5-yl]phenol]", "IC50": 57.5}
{"molecule": "Cc1ccc(C)c(-c2ccc3oc(N[C@@H]4CCCN(C)C4)nc3n2)c1O", "note": "[Example 69, 3,6-Dimethyl-2-[2-[[(3R)-1-methyl-3-piperidyl]amino]oxazolo[4,5-b]pyridin-5-yl]phenol]", "IC50": 2.7}
{"molecule": "Cc1cc(C(F)(F)F)cc(O)c1-c1ccc2oc(NCC3CCN3C)nc2n1", "note": "(stereo not shown) [Example 66, 3-Methyl-2-[2-[(1-methylazetidin-2-yl)methylamino]oxazolo[4,5-b]pyridin-5-yl]-5-(trifluoromethyl)phenol]", "IC50": 149}
{"molecule": "3-Methyl-2-[2-[[(2R)-1-methylazetidin-2-yl]methylamino]oxazolo[4,5-b]pyridin-5-yl]-5-(trifluoromethyl)phenol or 3-methyl-2-[2-[[(2S)-1-methylazetidin-2-yl]methylamino]oxazolo[4,5-b]pyridin-5-yl]-5-(trifluoromethyl)phenol [Example 66A]", "IC50": 398}
{"molecule": "CCN1CCC[C@@H](Nc2nc3nc(-c4c(O)cc(F)cc4Cl)ccc3o2)C1", "note": "[Example 129, 3-Chloro-2-[2-[[(3R)-1-ethyl-3-piperidyl]amino]oxazolo[4,5-b]pyridin-5-yl]-5-fluoro-phenol;2,2,2-trifluoroacetic acid]", "IC50": 1.7}
{"molecule": "Cc1cc(Cl)cc(O)c1-c1ccc2oc(N[C@@H]3CCC[C@H]3N(C)C)nc2n1", "note": "[Example 112, 5-Chloro-2-[2-[[(1R,2R)-2-(dimethylamino)cyclopentyl]amino]oxazolo[4,5-b]pyridin-5-yl]-3-methyl-phenol]", "IC50": 6.6}
{"molecule": "CCN1CCC(Nc2nc3nc(-c4c(C)cc(C(F)(F)F)cc4O)ccc3o2)C1", "note": "(stereo not shown) [Example 131, 2-[2-[(1-Ethylpyrrolidin-3-yl)amino]oxazolo[4,5-b]pyridin-5-yl]-3-methyl-5-(trifluoromethyl)phenol]", "IC50": 9.6}
{"molecule": "CCN1CCC[C@@H](Nc2nc3nc(-c4c(C)cc(C(F)(F)F)cc4O)cc(N4CC(O)C4)c3o2)C1", "note": "[Example 101, 1-[2-[[(3R)-1-Ethyl-3-piperidyl]amino]-5-[2-hydroxy-6-methyl-4-(trifluoromethyl)phenyl]-oxazolo[4,5-b]pyridin-7-yl]azetidin-3-ol]", "IC50": 6}
{"molecule": "CCN1CCC[C@@H](Nc2nc3nc(-c4c(C)cc(C#N)cc4O)cc(OC)c3o2)C1", "note": "[Example 111, 4-[2-[[(3R)-1-Ethyl-3-piperidyl]amino]-7-methoxy-oxazolo[4,5-b]pyridin-5-yl]-3-hydroxy-5-methyl-benzonitrile;2,2,2-trifluoroacetic acid]", "IC50": 2.2}
{"molecule": "Cc1cc(C(F)(F)F)cc(O)c1-c1ccc2oc(N[C@@H]3C[C@H]3N(C)C)nc2n1", "note": "[Example 55, 2-[2-[[(1R,2R)-2-(Dimethylamino)cyclopropyl]amino]oxazolo[4,5-b]pyridin-5-yl]-3-methyl-5-(trifluoromethyl)phenol]", "IC50": 17.8}
{"molecule": "CCN1CCC[C@@H](Nc2nc3nc(-c4c(C)cc(C(F)(F)F)cc4O)cc(N(C)C)c3o2)C1", "note": "[Example 116, 2-[7-(Dimethylamino)-2-[[(3R)-1-ethyl-3-piperidyl]amino]oxazolo[4,5-b]pyridin-5-yl]-3-methyl-5-(trifluoromethyl)phenol]", "IC50": 6.9}
{"molecule": "Cc1cc(C(F)(F)F)cc(O)c1-c1ccc2oc(NC[C@H]3C[C@@](C)(O)C3)nc2n1", "note": "[Example 57, cis-2-[2-[(3-Hydroxy-3-methyl-cyclobutyl)methylamino]oxazolo[4,5-b]pyridin-5-yl]-3-methyl-5-(trifluoromethyl)phenol]", "IC50": 50.3}
{"molecule": "Cc1cc(C#N)cc(O)c1-c1ccc2oc(NC3CCCN4CCCC34)nc2n1", "note": "(single isomer, unassigned) [Example 139B, 4-[2-[[(8R,8aR)-1,2,3,5,6,7,8,8a-Octahydroindolizin-8-yl]amino]oxazolo[4,5-b]pyridin-5-yl]-3-hydroxy-5-methyl-benzonitrile or 4-[2-[[(8S,8aS)-1,2,3,5,6,7,8,8a-octahydroindolizin-8-yl]amino]oxazolo[4,5-b]pyridin-5-yl]-3-hydroxy-5-methyl-benzonitrile]", "IC50": 59.9}
{"molecule": "Cc1cc(C#N)cc(O)c1-c1ccc2oc(NC3CCCN4CCCC34)nc2n1", "note": "(racemic) [Example 29, (rac)-4-[2-(1,2,3,5,6,7,8,8a-Octahydroindolizin-8-ylamino)oxazolo[4,5-b]pyridin-5-yl]-3-hydroxy-5-methyl-benzonitrile]", "IC50": 5.1}
{"molecule": "Cc1cc(Cl)cc(O)c1-c1ccc2oc(N[C@@H]3CCCN(C[C@@H]4CC[C@H]4O)C3)nc2n1", "note": "(racemic) [Example 118B, 5-chloro-2-[2-[[(3R)-1-[[rac trans-2-hydroxycyclobutyl]methyl]-3-piperidyl]amino]oxazolo[4,5-b]pyridin-5-yl]-3-methyl-phenol or 5-chloro-2-[2-[[(3R)-1-[[rac cis-2-hydroxycyclobutyl]methyl]-3-piperidyl]amino]oxazolo[4,5-b]pyridin-5-yl]-3-methyl-phenol]", "IC50": 30.6}
{"molecule": "CCN1CCC[C@@H](Nc2nc3nc(-c4c(O)cc(Cl)cc4C#N)ccc3o2)C1", "note": "[Example 23, 5-Chloro-2-[2-[[(3R)-1-ethyl-3-piperidyl]amino]oxazolo[4,5-b]pyridin-5-yl]-3-hydroxy-benzonitrile]", "IC50": 4.2}
{"molecule": "Cc1cc(C(F)(F)F)cc(O)c1-c1ccc2oc(NC[C@H]3C[C@](C)(O)C3)nc2n1", "note": "[Example 58, trans-2-[2-[(3-hydroxy-3-methyl-cyclobutyl)methylamino]oxazolo[4,5-b]pyridin-5-yl]-3-methyl-5-(trifluoromethyl)phenol]", "IC50": 95.9}
{"molecule": "CNC1CCCN(c2nc3nc(-c4c(C)cc(C(F)(F)F)cc4O)ccc3o2)C1", "note": "(racemic) [Example 10, (rac)-3-Methyl-2-[2-[3-(methylamino)-1-piperidyl]oxazolo[4,5-b]pyridin-5-yl]-5-(trifluoromethyl) phenol]", "IC50": 107}
{"molecule": "Cc1cc(Cl)cc(O)c1-c1ccc2oc(N(CCO)[C@@H]3CCCN(C)C3)nc2n1", "note": "[Example 98, 5-Chloro-2-[2-[2-hydroxyethyl-[(3R)-1-methyl-3-piperidyl]amino]oxazolo[4,5-b]pyridin-5-yl]-3-methyl-phenol]", "IC50": 11.1}
{"molecule": "CNC1(c2nc3nc(-c4c(C)cc(C(F)(F)F)cc4O)ccc3o2)CCOCC1", "note": "[Example 135, 3-Methyl-2-[2-[4-(methylamino)tetrahydropyran-4-yl]oxazolo[4,5-b]pyridin-5-yl]-5-(trifluoromethyl)phenol;2,2,2-trifluoroacetic acid]", "IC50": 505}
{"molecule": "CCN1CCC[C@@H](Nc2nc3nc(-c4c(C)cc(OC(F)F)cc4O)ccc3o2)C1", "note": "[Example 130, 5-(Difluoromethoxy)-2-[2-[[(3R)-1-ethyl-3-piperidyl]amino]oxazolo[4,5-b]pyridin-5-yl]-3-methyl-phenol;2,2,2-trifluoroacetic acid]", "IC50": 1.9}
{"molecule": "Cc1cc(C(F)(F)F)cc(O)c1-c1ccc2oc(N3CCO[C@H]4CNC[C@@H]43)nc2n1", "note": "[Example 64B, 2-[2-[(4aS,7aS)-3,4a,5,6,7,7a-Hexahydro-2H-pyrrolo[3,4-b][1,4]oxazin-4-yl]oxazolo[4,5-b]pyridin-5-yl]-3-methyl-5-(trifluoromethyl)phenol]", "IC50": 13.9}
{"molecule": "Cc1cc(C(F)(F)F)cc(O)c1-c1ccc2oc(N3CCO[C@H]4CNC[C@@H]43)nc2n1", "note": "(racemic) [Example 64, 3-Methyl-2-[2-[rac-(4aS,7aS)-3,4a,5,6,7,7a-hexahydro-2H-pyrrolo[3,4-b][1,4]oxazin-4-yl]oxazolo[4,5-b]pyridin-5-yl]-5-(trifluoromethyl)phenol;2,2,2-trifluoroacetic acid]", "IC50": 4.9}
{"molecule": "Cc1cc(Cl)cc(O)c1-c1ccc2oc(CC3CCCN(C)C3)nc2n1", "note": "(stereo not shown) [Example 83, 5-Chloro-3-methyl-2-[2-[(1-methyl-3-piperidyl)methyl]oxazolo[4,5-b]pyridin-5-yl]phenol]", "IC50": 5.1}
{"molecule": "CCN1CCC[C@@H](Nc2nc3nc(-c4c(O)cc(C(F)(F)F)cc4OC)ccc3o2)C1", "note": "[Example 31, 2-[2-[[(3R)-1-Ethyl-3-piperidyl]amino]oxazolo[4,5-b]pyridin-5-yl]-3-methoxy-5-(trifluoromethyl)phenol;2,2,2-trifluoroacetic acid salt]", "IC50": 4}
